# Reference: publication PMC5748433, “Study on the effect of EMD386088, a 5-HT6 receptor partial agonist, in enhancing the anti-immobility action of some antidepressants in rats” (Naunyn-Schmiedeberg's Archives of Pharmacology, 2017)
# Like-named read-outs stand apart in the source and are kept apart here.
# Columns and labels:
# [1] = Distribution of EMD386088 in rats' brain (LC/MS/MS, non-compartmental); assay type: in vivo, rat
# Protocol: Blood samples were collected at 0 min (predose), 5 min, 15 min, 30 min, 60 min, 120 min, and 240 min after injections. The blood was collected from right ventricle under anesthesia using a mixture of ketamine (50 mg/kg)/xylasine (8 mg/kg) in the ratio of 3:1, and 0.025 mL of a mixture for 10 g body weight was injected i.p. 10 min before planned blood collection. Blood and brain samples were collected under general anesthesia induced by i.p. injections of ketamine (50 mg/kg)/xylasine (8 mg/kg). The blood samples were taken into heparinized tubes, immediately centrifuged at 3500 rpm for 10 min, and plasma was collected. After the blood was drawn, the rat’s spinal cord was cut and the cerebral tissue was removed, and after dissection washed in PBS saline. The brain and plasma samples were immediately frozen at − 80 °C for LC/MS/MS analysis.
# Pharmacokinetic parameters were calculated by a non-compartmental approach from the average concentration values, using Phoenix WinNonlin software (Certara, Princeton, NJ 08540 USA). First order elimination rate constant (λz) was calculated by linear regression of time versus log concentration.
# The quantification of studied compounds in plasma and brain samples was done using HPLC Agilent 1100 system (Agilent Technologies, Waldbronn, Germany) coupled to the triple quadrupole mass spectrometer API 2000 (ABSciex, Framingham, Massachusetts, USA) equipped with an electrospray ion source. After preparation, the samples were injected (20 μL) onto XBridge C18 (2.1 mm × 30 mm, 3.5 μm, Waters, Milford, Massachusetts, USA) analytical column. The mobile phase consisted of ACN with 0.1% formic acid (A) and water with 0.1% formic acid (B) were delivered in gradient elution started with 90% of eluent B, increasing during 2 min to 90% of eluent A, maintained to 3 min, and then returned during 5 min to 90% of eluent B, and maintained 90% of eluent B during 5 min at a flow rate of 300 μL/min. The total time of analysis was 15 min. Electrospray ionization process was performed in positive ionization and the data acquisition was carried out in multiple reaction monitoring mode (MRM) for EMD386088 and its internal standard (nebivolol). The ion spray source settings were as follows: spray voltage: 5 kV, heater temperature: 350 °C, curtain gas: 15 psi, source gas 1: 35 psi, source gas 2: 10 psi. The ions measured were m/z 247.3 (Q1) and m/z 168.2 (Q3) for EMD386088, and m/z 406.2 (Q1) and m/z 151.1 (Q3) for IS.
# A sample volume of 50 μL of plasma or brain homogenate was transferred into the clean Eppendorf tube and spiked with 5 μL of IS solution (1 μg/mL) obtaining the final concentration of 100 ng/mL. After 5 min of mixing (1500 rpm), proteins were precipitated using 150 μL ACN. After 10 min of samples shaking (1500 rpm), the incubation step was performed (10 min, 4 °C). Next, samples were centrifuged (10,000 rpm, 10 min, 4 °C) and the supernatant was transferred into chromatographic vial for LC/MS/MS analysis. The brain homogenate was prepared maintaining the tissue: phosphate-buffered saline (PBS) at a ratio of 1:5. The homogenization was carried out employing IKA® T10 Basic ULTRA-TURRAX disperser (IKA Werke GmbH & Co. KG, Staufen, Germany). After homogenization, 50 μL of sample was collected for further preparation. All samples were stored on ice during the preparation process.
# dopamine D3 = test system: dopamine D3; parameters: method as in Jastrzębska-Więsek et al. [2013]; details: ref Jastrzębska-Więsek et al. [2013]; cited from earlier work
# [2] = test system: serotonin (5-HT) transporter; parameters: method as in Jastrzębska-Więsek et al. [2013]; details: ref Jastrzębska-Więsek et al. [2013]; cited from earlier work
# [3] = rat brain, EMD386088 2.5 mg/kg i.p. jointly with imipramine (IMI) 15 mg/kg i.p.
# [4] = rat, brain, ip, 2.5 mg/kg, rat brain, EMD386088 2.5 mg/kg i.p. alone
# [5] = rat, brain, ip, 2.5 mg/kg, rat brain, EMD386088 2.5 mg/kg i.p. jointly with imipramine (IMI) 15 mg/kg i.p.
# [6] = rat, brain, ip, 5 mg/kg, rat brain, EMD386088 5 mg/kg i.p. alone
smiles,measurement,setting,value
"Cc1[nH]c2ccc(Cl)cc2c1C1=CCNCC1.Cl [EMD386088, 5-chloro-2-methyl-3-(1,2,3,6-tetrahydro-4-pyridinyl)-1H-indole hydrochloride]",Tmax,"[1]; ip, rat brain, EMD386088 2.5 mg/kg i.p. alone, read-out: t max (converted)",2 h
same,Tmax,"[1]; ip, rat brain, EMD386088 5 mg/kg i.p. alone, read-out: t max (converted)",2 h
same,AUC0 → t,"[1]; rat brain, EMD386088 2.5 mg/kg i.p. alone","41,936.2 ng ⋅ min/g"
same,AUC0 → t,[1]; [3],"56,428.6 ng ⋅ min/g"
same,Tmax,[1]; [3],2 h
same,AUC0 → t,"[1]; rat brain, EMD386088 5 mg/kg i.p. alone","84,462.8 ng ⋅ min/g"
same,Cmax,[1]; [4],321 ng/g
same,MRT,[1]; [4],1.9 h
same,Cmax,[1]; [5],277 ng/g
same,MRT,[1]; [5],2.12 h
same,Cmax,[1]; [6],640 ng/g
same,MRT,[1]; [6],1.91 h
same,Kp,"[1]; rat, brain, ip, rats, EMD386088 2.5 mg/kg i.p. alone, calculated on the basis of AUC0 → t values, read-out: brain/plasma ratio",~19
same,Tmax,"[1]; rat, brain, ip, rats, after i.p. administration, read-out: t max in the brain (converted)",2 h
same,decrease in penetration on coadministration with imipramine,"[1]; rats, EMD386088 with imipramine vs alone",2.5 fold
same,affinity for dopamine D3,dopamine D3,no affinity
same,affinity for serotonin (5-HT) transporter,[2],no affinity
